According to patent publication US12043599B2, “Herbicidal compounds” (SYNGENTA PARTICIPATIONS AG, priority 2018, dated 2024):

Tests used:
Assay type in all cases: in vivo
Settings in all cases: 250 g/h, evaluated after 13 days
[1] = test system: Alopecurus myosuroides (ALOMY); assay: Pre-emergence herbicidal glasshouse test, percentage damage
Summary of the method: (§1)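 Percentage damage, read 13 days after treatment and banded into five classes (1=0-19% up to 5=80-100%). Plants in pots of standard soil received 250 g/h as a spray from acetone/water (50:50) containing 0.5% Tween 20. Application was one day (pre-emergence) or eight days (post-emergence) after sowing.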

Avena fatua (AVEFA) [2] = assay: as above
Summary of the method: as §1

[3] = test system: Echinochloa crus-galli (ECHCG); assay: as above
Summary of the method: as §1

Lolium perenne (LOLPE) [4] = assay: as above
Summary of the method: as §1

Setaria faberi (SETFA) [5] = assay: as above
Summary of the method: as §1

Setaria faberi (SETFA) [6] = assay: Post-emergence herbicidal glasshouse test, percentage damage
Summary of the method: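 Wheat, barley and Setaria faberi were sprayed post-emergence after 8 days' growth (24/16 °C, 14 h light, 65% humidity) with compound in acetone/water (50:50) containing 0.5% Tween 20, at the indicated rates. On wheat, compounds were also applied with cloquintocet-mexyl at 50 g/ha. Damage was scored after 13 days on a five-point scale (5=80-100% to 1=0-19%).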

[7] = test system: Alopecurus myosuroides (ALOMY); assay: as above
Summary of the method: as §1

Avena fatua (AVEFA) [8] = assay: as above
Summary of the method: as §1

[9] = test system: Echinochloa crus-galli (ECHCG); assay: as above
Summary of the method: as §1

Lolium perenne (LOLPE) [10] = assay: as above
Summary of the method: as §1

Structure (SMILES)	ALOMY PRE percentage damage (five point scale) [1]	AVEFA PRE percentage damage (five point scale) (Avena fatua (AVEFA) [2])	ECHCG PRE percentage damage (five point scale) [3]	LOLPE PRE percentage damage (five point scale) (Lolium perenne (LOLPE) [4])	SETFA PRE percentage damage (five point scale) (Setaria faberi (SETFA) [5])	SETFA POST percentage damage (five point scale) (Setaria faberi (SETFA) [6])	ALOMY POST percentage damage (five point scale) [7]	AVEFA POST percentage damage (five point scale) (Avena fatua (AVEFA) [8])	ECHCG POST percentage damage (five point scale) [9]	LOLPE POST percentage damage (five point scale) (Lolium perenne (LOLPE) [10])
CC#Cc1cc(C)c(C2C(=O)CC3(CCN(C(=O)c4cccc(C#N)n4)CC3)CC2=O)c(C)c1 [Compound A178]	4 (4=60-79%)	5 (5=80-100%)	4 (4=60-79%)	5 (5=80-100%)	5 (5=80-100%)	5 (5=80-100%)	5 (5=80-100%)	5 (5=80-100%)	5 (5=80-100%)	5 (5=80-100%)
CC#Cc1cc(C)c(C2C(=O)CC3(CCN(C(=O)c4cnccn4)CC3)CC2=O)c(C)c1 [Compound A16]	5 (5=80-100%)	5 (5=80-100%)	5 (5=80-100%)	5 (5=80-100%)	5 (5=80-100%)	5 (5=80-100%)	5 (5=80-100%)	5 (5=80-100%)	5 (5=80-100%)	5 (5=80-100%)
CC#Cc1cc(C)c(C2C(=O)CC3(CCN(C(=O)NC(=O)c4ccc(Cl)cn4)CC3)CC2=O)c(C)c1 [Compound A162]	5 (5=80-100%)	5 (5=80-100%)	5 (5=80-100%)	5 (5=80-100%)	5 (5=80-100%)	5 (5=80-100%)	5 (5=80-100%)	5 (5=80-100%)	5 (5=80-100%)	5 (5=80-100%)
CC#Cc1cc(C)c(C2C(=O)CC3(CCN(C(=O)c4ccc(C#N)nc4)CC3)CC2=O)c(C)c1 [Compound A191]	2 (2=20-39%)	4 (4=60-79%)	5 (5=80-100%)	5 (5=80-100%)	5 (5=80-100%)	5 (5=80-100%)	5 (5=80-100%)	5 (5=80-100%)	5 (5=80-100%)	5 (5=80-100%)
CC#Cc1cc(C)c(C2C(=O)CC3(CCN(S(=O)(=O)C4COC4)CC3)CC2=O)c(C)c1 [Compound A83]	5 (5=80-100%)	4 (4=60-79%)	5 (5=80-100%)	5 (5=80-100%)	5 (5=80-100%)	5 (5=80-100%)	5 (5=80-100%)	5 (5=80-100%)	5 (5=80-100%)	5 (5=80-100%)
CC#Cc1cc(C)c(C2C(=O)CC3(CCN(C(=O)c4ccccc4F)CC3)CC2=O)c(C)c1 [Compound A84]	5 (5=80-100%)	4 (4=60-79%)	5 (5=80-100%)	5 (5=80-100%)	5 (5=80-100%)	5 (5=80-100%)	5 (5=80-100%)	5 (5=80-100%)	5 (5=80-100%)	5 (5=80-100%)
CC#Cc1cc(C)c(C2C(=O)CC3(CCN(C(=O)c4ccncn4)CC3)CC2=O)c(C)c1 [Compound A18]	5 (5=80-100%)	5 (5=80-100%)	5 (5=80-100%)	5 (5=80-100%)	5 (5=80-100%)	5 (5=80-100%)	5 (5=80-100%)	5 (5=80-100%)	5 (5=80-100%)	5 (5=80-100%)
CC#Cc1cc(C)c(C2C(=O)CC3(CCN(C(=O)NC(=O)c4ccccc4F)CC3)CC2=O)c(C)c1 [Compound A167]	4 (4=60-79%)	4 (4=60-79%)	5 (5=80-100%)	5 (5=80-100%)	5 (5=80-100%)	5 (5=80-100%)	5 (5=80-100%)	5 (5=80-100%)	5 (5=80-100%)	5 (5=80-100%)
CC#Cc1cc(C)c(C2C(=O)CC3(CCN(C(=O)NC(C)(C)CC)CC3)CC2=O)c(C)c1 [Compound A169]	5 (5=80-100%)	5 (5=80-100%)	5 (5=80-100%)	5 (5=80-100%)	5 (5=80-100%)	5 (5=80-100%)	5 (5=80-100%)	5 (5=80-100%)	5 (5=80-100%)	5 (5=80-100%)
CC#Cc1cc(C)c(C2=C(OC(=O)OC)CC3(CCN(S(C)(=O)=O)CC3)CC2=O)c(C)c1 [Compound P28]	5 (5=80-100%)	5 (5=80-100%)	5 (5=80-100%)	5 (5=80-100%)	5 (5=80-100%)	5 (5=80-100%)	5 (5=80-100%)	5 (5=80-100%)	5 (5=80-100%)	5 (5=80-100%)
CC#Cc1cc(C)c(C2C(=O)CC3(CCN(C(=O)Nc4cccnc4)CC3)CC2=O)c(C)c1 [Compound A22]	5 (5=80-100%)	5 (5=80-100%)	5 (5=80-100%)	5 (5=80-100%)	5 (5=80-100%)	5 (5=80-100%)	5 (5=80-100%)	5 (5=80-100%)	5 (5=80-100%)	5 (5=80-100%)
CC#Cc1cc(C)c(C2=C(OC(=O)OC)CC3(CCN(C(=O)COCCOC)CC3)CC2=O)c(C)c1 [Compound P50]	3 (3=40-59%)	2 (2=20-39%)	5 (5=80-100%)	4 (4=60-79%)	5 (5=80-100%)	5 (5=80-100%)	4 (4=60-79%)	5 (5=80-100%)	5 (5=80-100%)	5 (5=80-100%)
CC#Cc1cc(C)c(C2=C(OC(=O)OC)CC3(CCN(C(=O)c4ccccn4)CC3)CC2=O)c(C)c1 [Compound P24]	5 (5=80-100%)	5 (5=80-100%)	5 (5=80-100%)	5 (5=80-100%)	5 (5=80-100%)	5 (5=80-100%)	5 (5=80-100%)	5 (5=80-100%)	5 (5=80-100%)	5 (5=80-100%)
CC#Cc1cc(C)c(C2=C(OS(=O)(=O)c3ccccn3)CC3(CCN(S(=O)(=O)c4ccccn4)CC3)CC2=O)c(C)c1 [Compound P17]	5 (5=80-100%)	3 (3=40-59%)	5 (5=80-100%)	4 (4=60-79%)	4 (4=60-79%)	5 (5=80-100%)	5 (5=80-100%)	5 (5=80-100%)	5 (5=80-100%)	5 (5=80-100%)
